Patent publication US8901133B2, “Heterocyclic compounds and uses thereof” (Infinity Pharmaceuticals, Inc., priority 2010, dated 2014)

Assays:
Format in all cases: biochemical
PI3Kδ = molecular target: T1, PI3Kδ (Homo sapiens, UniProt O00329); test: PI3 Kinase HTRF assay, PI3Kδ; conditions: 10 μM PIP2, 10 μM ATP; read-out: PI3K δ IC50
T1 construct: purchased Millipore Corporation 14-604-K
Text: (§1) A PI3 Kinase HTRF® assay kit (cat No. 33-016) purchased from Millipore Corporation was used to screen compounds disclosed herein. This assay used specific, high affinity binding of the GRP1 pleckstrin homology (PH) domain to PIP3, the product of a Class 1A or 1B PI3 Kinase acting on its physiological substrate PIP2. During the detection phase of the assay, a complex was generated between the GST-tagged PH domain and biotinylated short chain PIP3. The biotinylated PIP3 and the GST-tagged PH domain recruited fluorophores (Streptavidin-Allophycocyanin and Europium-labeled anti-GST respectively) to form the fluorescence resonance energy transfer (FRET) architecture, generating a stable time-resolved FRET signal. The FRET complex was disrupted in a competitive manner by non-biotinylated PIP3, a product formed in the PI3 Kinase assay.
(§2) PI3 Kinase α, β, γ and δ activity was assayed using the PI3 Kinase HTRF® assay kit (catalogue No. 33-016) purchased from Millipore Corporation. Purified recombinant PI3Kα (catalogue No. 14-602-K), PI3Kβ (catalogue No. 14-603-K), PI3Kγ (catalogue No. 14-558-K) and PI3Kδ (catalogue No. 14-604-K) were obtained from Millipore Corporation. Purified recombinant PI3K enzyme was used to catalyze the phosphorylation of phosphatidylinositol 4,5-bisphosphate (PIP2 at 10 μM) to phosphatidylinositol 3,4,5-trisphosphate (PIP3) in the presence of 10 μM ATP. The assay was carried out in 384-well format and detected using a Perkin Elmer En Vision Xcite Multilabel Reader. Emission ratios were converted into percent inhibitions and imported into GraphPad Prism software. The concentration necessary to achieve inhibition of enzyme activity by 50% (IC50) was calculated using concentrations ranging from 20 μM to 0.1 nM (12-point curve). IC50 values were determined using a nonlinear regression model available in GraphPad Prism 5. […]

PI3Kγ = molecular target: T2, PI3Kγ (Homo sapiens, UniProt P48736); test: PI3 Kinase HTRF assay, PI3Kγ; conditions: 10 μM PIP2, 10 μM ATP; read-out: PI3K γ IC50
T2 construct: purchased Millipore Corporation 14-558-K
T2 sequence (P48736 whole entry): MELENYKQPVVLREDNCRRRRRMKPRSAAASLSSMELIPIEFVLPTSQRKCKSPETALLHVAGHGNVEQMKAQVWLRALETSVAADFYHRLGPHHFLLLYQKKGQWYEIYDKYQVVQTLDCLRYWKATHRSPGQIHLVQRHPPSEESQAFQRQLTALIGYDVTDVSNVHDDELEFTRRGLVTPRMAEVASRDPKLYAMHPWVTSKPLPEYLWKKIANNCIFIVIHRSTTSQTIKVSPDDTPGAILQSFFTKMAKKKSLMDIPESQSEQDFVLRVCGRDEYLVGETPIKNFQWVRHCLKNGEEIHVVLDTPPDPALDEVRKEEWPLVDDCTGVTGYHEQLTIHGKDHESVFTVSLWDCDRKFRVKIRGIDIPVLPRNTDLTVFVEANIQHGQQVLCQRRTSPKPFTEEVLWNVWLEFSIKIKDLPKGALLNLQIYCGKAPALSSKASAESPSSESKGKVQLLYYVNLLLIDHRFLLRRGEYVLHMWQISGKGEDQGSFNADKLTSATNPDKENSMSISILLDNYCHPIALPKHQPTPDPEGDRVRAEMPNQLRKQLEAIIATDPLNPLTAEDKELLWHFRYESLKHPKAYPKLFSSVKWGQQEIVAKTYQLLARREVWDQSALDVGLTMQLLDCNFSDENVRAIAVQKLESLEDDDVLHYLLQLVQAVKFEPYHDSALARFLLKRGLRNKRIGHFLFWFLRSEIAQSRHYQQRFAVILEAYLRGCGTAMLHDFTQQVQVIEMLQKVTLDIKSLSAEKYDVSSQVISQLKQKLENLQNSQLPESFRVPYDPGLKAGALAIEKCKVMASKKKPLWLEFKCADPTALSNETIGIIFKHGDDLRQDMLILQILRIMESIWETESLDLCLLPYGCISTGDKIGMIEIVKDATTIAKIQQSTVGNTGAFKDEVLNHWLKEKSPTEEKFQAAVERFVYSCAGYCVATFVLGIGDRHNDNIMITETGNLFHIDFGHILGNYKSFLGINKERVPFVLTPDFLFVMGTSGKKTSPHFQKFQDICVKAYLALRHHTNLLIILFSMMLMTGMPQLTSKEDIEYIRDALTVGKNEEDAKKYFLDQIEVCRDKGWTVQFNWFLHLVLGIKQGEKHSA
Text: as §1, §2

PI3Kα = molecular target: T3, PI3Kα (Homo sapiens, UniProt P42336); test: PI3 Kinase HTRF assay, PI3Kα; conditions: 10 μM PIP2, 10 μM ATP; read-out: PI3K α IC50
T3 construct: purchased Millipore Corporation 14-602-K
T3 sequence (P42336 whole entry): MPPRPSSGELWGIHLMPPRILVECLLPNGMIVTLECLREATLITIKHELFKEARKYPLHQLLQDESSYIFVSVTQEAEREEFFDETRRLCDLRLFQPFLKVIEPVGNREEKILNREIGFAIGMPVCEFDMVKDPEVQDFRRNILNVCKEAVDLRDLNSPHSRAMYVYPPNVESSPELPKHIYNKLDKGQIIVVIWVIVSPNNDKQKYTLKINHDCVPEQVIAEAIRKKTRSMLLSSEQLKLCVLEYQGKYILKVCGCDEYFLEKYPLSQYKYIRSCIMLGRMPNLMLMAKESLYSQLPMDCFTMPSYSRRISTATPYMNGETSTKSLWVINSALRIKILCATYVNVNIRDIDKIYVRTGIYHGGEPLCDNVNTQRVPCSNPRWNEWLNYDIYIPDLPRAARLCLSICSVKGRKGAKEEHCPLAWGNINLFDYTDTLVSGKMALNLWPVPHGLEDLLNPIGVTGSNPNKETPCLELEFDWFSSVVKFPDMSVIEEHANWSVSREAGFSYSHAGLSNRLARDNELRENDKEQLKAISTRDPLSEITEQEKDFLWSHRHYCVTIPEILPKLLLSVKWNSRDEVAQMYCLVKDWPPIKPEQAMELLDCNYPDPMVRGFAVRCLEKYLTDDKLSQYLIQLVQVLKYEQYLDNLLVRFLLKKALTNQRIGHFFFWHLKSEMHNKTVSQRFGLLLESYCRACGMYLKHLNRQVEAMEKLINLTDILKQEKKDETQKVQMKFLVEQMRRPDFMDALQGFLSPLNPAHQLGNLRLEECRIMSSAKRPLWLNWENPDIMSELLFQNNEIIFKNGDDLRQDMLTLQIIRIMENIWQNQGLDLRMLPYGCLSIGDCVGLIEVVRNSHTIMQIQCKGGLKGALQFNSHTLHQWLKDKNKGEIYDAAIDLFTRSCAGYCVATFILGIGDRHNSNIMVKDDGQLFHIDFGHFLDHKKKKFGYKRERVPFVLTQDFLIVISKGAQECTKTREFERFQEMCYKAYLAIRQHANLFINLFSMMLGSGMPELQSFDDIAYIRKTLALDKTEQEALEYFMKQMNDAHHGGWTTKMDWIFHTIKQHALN
T3 sequence (P27986 whole entry partner): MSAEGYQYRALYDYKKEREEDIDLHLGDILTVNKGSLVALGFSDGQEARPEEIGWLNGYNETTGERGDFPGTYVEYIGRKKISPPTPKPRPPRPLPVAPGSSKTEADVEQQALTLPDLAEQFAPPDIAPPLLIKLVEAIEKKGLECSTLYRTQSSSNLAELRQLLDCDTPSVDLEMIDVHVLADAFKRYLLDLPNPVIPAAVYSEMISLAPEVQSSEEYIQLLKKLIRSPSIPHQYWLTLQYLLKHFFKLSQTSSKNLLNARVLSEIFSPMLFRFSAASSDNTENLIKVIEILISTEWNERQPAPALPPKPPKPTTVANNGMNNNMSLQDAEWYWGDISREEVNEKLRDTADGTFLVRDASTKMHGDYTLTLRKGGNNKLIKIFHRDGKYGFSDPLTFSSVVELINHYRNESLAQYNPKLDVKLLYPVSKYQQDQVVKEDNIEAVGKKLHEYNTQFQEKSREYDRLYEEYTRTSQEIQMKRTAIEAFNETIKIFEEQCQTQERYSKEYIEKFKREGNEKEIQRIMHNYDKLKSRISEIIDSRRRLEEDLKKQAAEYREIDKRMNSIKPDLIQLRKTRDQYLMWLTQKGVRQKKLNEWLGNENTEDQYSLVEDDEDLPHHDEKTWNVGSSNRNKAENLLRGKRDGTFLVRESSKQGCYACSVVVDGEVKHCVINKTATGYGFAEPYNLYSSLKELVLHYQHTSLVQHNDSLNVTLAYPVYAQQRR
Text: as §1, §2

PI3Kβ = molecular target: T4, PI3Kβ (Homo sapiens, UniProt P42338); test: PI3 Kinase HTRF assay, PI3Kβ; conditions: 10 μM PIP2, 10 μM ATP; read-out: PI3K β IC50
T4 construct: purchased Millipore Corporation 14-603-K
T4 sequence (P42338 whole entry): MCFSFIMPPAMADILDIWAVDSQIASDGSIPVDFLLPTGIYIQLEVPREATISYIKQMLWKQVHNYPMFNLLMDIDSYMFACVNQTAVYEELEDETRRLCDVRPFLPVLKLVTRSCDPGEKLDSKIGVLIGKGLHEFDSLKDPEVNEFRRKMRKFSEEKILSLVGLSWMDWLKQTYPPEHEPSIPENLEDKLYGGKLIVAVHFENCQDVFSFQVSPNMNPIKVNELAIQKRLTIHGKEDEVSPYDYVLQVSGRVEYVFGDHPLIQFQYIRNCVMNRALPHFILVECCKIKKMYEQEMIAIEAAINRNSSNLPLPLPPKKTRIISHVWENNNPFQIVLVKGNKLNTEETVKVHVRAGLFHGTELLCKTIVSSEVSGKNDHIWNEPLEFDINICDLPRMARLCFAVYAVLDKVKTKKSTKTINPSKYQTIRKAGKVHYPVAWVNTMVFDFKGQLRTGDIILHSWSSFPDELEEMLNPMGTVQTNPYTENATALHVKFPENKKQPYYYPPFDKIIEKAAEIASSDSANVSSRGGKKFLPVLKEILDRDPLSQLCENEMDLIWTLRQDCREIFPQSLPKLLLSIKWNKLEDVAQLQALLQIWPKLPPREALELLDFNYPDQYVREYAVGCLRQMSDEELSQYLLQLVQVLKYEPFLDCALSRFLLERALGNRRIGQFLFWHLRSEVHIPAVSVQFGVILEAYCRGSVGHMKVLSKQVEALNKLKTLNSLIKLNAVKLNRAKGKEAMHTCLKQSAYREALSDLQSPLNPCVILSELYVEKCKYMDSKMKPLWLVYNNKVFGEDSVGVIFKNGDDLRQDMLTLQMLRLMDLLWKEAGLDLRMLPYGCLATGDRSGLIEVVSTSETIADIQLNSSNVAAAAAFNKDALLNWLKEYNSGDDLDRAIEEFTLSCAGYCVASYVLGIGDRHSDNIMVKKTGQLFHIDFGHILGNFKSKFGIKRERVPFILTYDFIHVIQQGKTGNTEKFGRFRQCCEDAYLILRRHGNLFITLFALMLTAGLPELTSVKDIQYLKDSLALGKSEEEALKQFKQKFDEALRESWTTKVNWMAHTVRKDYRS
T4 sequence (P27986 whole entry partner): as the sequence (P27986 whole entry partner) above
Text: as §1, §2

T1 sequence (O00329 whole entry): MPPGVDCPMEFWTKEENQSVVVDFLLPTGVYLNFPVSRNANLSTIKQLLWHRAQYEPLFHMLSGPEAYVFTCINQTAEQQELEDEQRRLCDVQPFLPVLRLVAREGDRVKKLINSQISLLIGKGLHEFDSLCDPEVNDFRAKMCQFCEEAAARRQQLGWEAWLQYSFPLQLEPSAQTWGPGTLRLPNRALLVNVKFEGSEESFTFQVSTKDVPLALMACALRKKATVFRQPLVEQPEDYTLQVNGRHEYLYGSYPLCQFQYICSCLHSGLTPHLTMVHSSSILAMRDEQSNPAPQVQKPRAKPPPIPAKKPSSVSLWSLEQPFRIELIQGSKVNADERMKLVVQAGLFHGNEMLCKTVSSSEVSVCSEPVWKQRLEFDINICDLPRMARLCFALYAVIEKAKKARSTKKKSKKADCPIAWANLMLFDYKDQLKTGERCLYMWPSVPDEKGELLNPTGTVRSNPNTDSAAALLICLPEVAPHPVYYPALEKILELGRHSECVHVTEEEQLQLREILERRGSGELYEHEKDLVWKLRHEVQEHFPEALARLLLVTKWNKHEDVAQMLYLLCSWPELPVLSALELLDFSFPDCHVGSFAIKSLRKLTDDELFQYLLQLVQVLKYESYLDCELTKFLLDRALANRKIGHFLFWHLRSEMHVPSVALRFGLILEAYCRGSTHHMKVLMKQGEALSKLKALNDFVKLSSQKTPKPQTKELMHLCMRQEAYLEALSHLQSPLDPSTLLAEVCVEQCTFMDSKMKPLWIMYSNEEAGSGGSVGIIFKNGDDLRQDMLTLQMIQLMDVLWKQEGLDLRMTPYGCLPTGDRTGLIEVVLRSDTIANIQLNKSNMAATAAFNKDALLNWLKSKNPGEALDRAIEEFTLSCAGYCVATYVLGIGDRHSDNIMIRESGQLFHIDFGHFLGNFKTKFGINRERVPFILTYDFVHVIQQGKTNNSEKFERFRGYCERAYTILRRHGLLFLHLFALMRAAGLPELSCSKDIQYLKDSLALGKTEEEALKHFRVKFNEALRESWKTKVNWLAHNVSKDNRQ
T1 sequence (P27986 whole entry partner): as the sequence (P27986 whole entry partner) above

Row | IC50 (PI3Kδ) [µM] | IC50 (PI3Kγ) [µM] | IC50 (PI3Kα) [µM] | IC50 (PI3Kβ) [µM] | Compound
1 | < 0.1 | < 1 | > 10 | > 10 | CC1CN(C(=O)c2nc([C@H](C)Nc3ncnc4scnc34)cc3cccc(Cl)c23)CCO1 (stereo partly shown) [Compound 221]
2 | < 1 | < 1 | < 10 | > 10 | CC1CN(C(=O)c2nc([C@H](C)Nc3ncnc4cccnc34)cc3cccc(Cl)c23)CCO1 (stereo partly shown) [Compound 222]
3 | < 1 | < 1 | > 10 | < 10 | C[C@H](Nc1ncnc2scnc12)c1cc2cccc(Cl)c2c(C(=O)N(C)C)n1 [Compound 223]
4 | < 10 | < 1 | > 10 | < 10 | C[C@H](Nc1ncnc2cccnc12)c1cc2cccc(Cl)c2c(C(=O)N(C)C)n1 [Compound 224]
5 | < 1 | < 1 | < 10 | > 10 | C[C@H](Nc1ncnc2cccnc12)c1cc2cccc(Cl)c2c(C(=O)N2CCNC(=O)C2)n1 [Compound 225]
6 | < 1 | < 10 | > 10 | > 10 | C[C@H](Nc1ncnc2cccnc12)c1cc2cccc(Cl)c2c(C(=O)N2CCC(F)(F)CC2)n1 [Compound 226]
7 | < 0.1 | < 10 | < 10 | < 10 | C[C@H](Nc1ncnc2scnc12)c1cc2cccc(Cl)c2c(C(=O)N2CCCOCC2)n1 [Compound 227]
8 | < 0.1 | < 10 | < 10 | < 1 | C[C@H](Nc1ncnc2scnc12)c1cc2cccc(Cl)c2c(C(=O)N2CCCCC2)n1 [Compound 229]
9 | < 1 | < 1 | < 10 | > 10 | C[C@H](Nc1ncnc2cccnc12)c1cc2cccc(Cl)c2c(C(=O)N2CCCCC2)n1 [Compound 230]
10 | < 1 | < 10 | < 10 | > 10 | C[C@H](Nc1ncnc2cccnc12)c1cc2cccc(Cl)c2c(C(=O)N2CCCOCC2)n1 [Compound 231]
11 | < 1 | < 10 | < 10 | > 10 | C[C@H](Nc1ncnc2cccnc12)c1cc2cccc(Cl)c2c(C(=O)N2CCC(O)CC2)n1 [Compound 233]
12 | > 10 | > 10 | > 10 | > 10 | C[C@@H](Nc1ncnc2[nH]cnc12)c1cc2cccc(Cl)c2c(CN2CCCC2)n1 [Compound 239]
13 | < 1 | < 10 | > 10 | < 10 | C[C@H](Nc1ncnc2cccnc12)c1cc2cccc(-c3cnn(C)c3)c2c(N2CCN(C)CC2)n1 [Compound 243]
14 | < 1 | < 10 | > 10 | > 10 | COCCN(C)C(=O)c1nc([C@H](C)Nc2ncnc3cccnc23)cc2cccc(Cl)c12 [Compound 244]
15 | < 1 | < 1 | > 10 | > 10 | C[C@H](Nc1ncnc2cccnc12)c1cc2cccc(Cl)c2c(C(=O)N2CCOC[C@H]2C)n1 [Compound 245]
16 | < 1 | < 10 | < 10 | < 10 | C[C@H](Nc1ncnc2scnc12)c1cc2cccc(Cl)c2c(C(=O)N2CCOC[C@H]2C)n1 [Compound 246]
17 | < 0.1 | < 1 | < 10 | < 10 | COCCN(C)C(=O)c1nc([C@H](C)Nc2ncnc3scnc23)cc2cccc(Cl)c12 [Compound 249]

More lines, now with the values behind:

Row | Compound | IC50 (PI3Kδ) [µM] | IC50 (PI3Kγ) [µM] | IC50 (PI3Kα) [µM] | IC50 (PI3Kβ) [µM]
18 | C[C@H](Nc1ncnc2cccnc12)c1cc2cccc(-c3cnn(C)c3)c2c(CCN2CCOCC2)n1 [Compound 154] | < 1 | < 10 | < 10 | > 10
19 | C[C@H](Nc1ncnc2[nH]cnc12)c1cc2cccc(-c3cnn(C)c3)c2c(CCN2CCOCC2)n1 [Compound 157] | < 1 | < 10 | > 10 | > 10
20 | Cc1nc([C@H](C)Nc2ncnc3[nH]cnc23)cc2cccc(-c3cccnc3)c12 [Compound 170] | < 0.1 | < 10 | > 10 | > 10
21 | Cc1nc([C@H](C)Nc2ncnc3[nH]cnc23)cc2cccc(-c3cnn(C)c3)c12 [Compound 171] | < 0.1 | < 10 | < 10 | > 10
22 | C[C@H](Nc1ccnc2ccnn12)c1cc2cccc(Cl)c2c(OC2CCN(S(C)(=O)=O)CC2)n1 [Compound 174] | < 1 | > 10 | > 10 | < 10
23 | C[C@H](Nc1ncnc2cccnc12)c1cc2cccc(-c3cnn(C)c3)c2c(C(=O)N2CCOCC2)n1 [Compound 187] | < 1 | < 10 | < 10 | > 10
24 | C[C@H](Nc1ncnc2[nH]cnc12)c1cc2cccc(-c3cnn(C)c3)c2c(Cl)n1 [Compound 193] | < 0.1 | < 1 | > 10 | > 10
25 | Cc1nc([C@H](C)Nc2ncnc3[nH]cnc23)cc2cccc(C(=O)N3CCOCC3)c12 [Compound 198] | < 1 | > 10 | > 10 | > 10
26 | Cc1nc([C@H](C)Nc2ncnc3[nH]cnc23)cc2cccc(C(=O)N3C4CCC3COC4)c12 [Compound 199] | < 10 | > 10 | > 10 | > 10
27 | C[C@H](Nc1ncnc2cccnc12)c1cc2cccc(-c3cnn(C)c3)c2c(C(=O)N2C3CCC2COC3)n1 [Compound 200] | < 1 | > 10 | > 10 | > 10
28 | C[C@H](Nc1ncnc2[nH]cnc12)c1cc2cccc(-c3cnn(C)c3)c2c(C(=O)N2C3CCC2COC3)n1 [Compound 201] | < 0.1 | < 1 | > 10 | > 10
29 | Cc1nc([C@H](C)Nc2ncnc3[nH]cnc23)cc2cccc(C(=O)N3CCN(C)CC3)c12 [Compound 202] | > 10 | > 10 | > 10 | > 10
30 | C[C@H](Nc1ncnc2[nH]cc(C#N)c12)c1cc2cccc(Cl)c2c(C(=O)N2CCOCC2)n1 [Compound 203] | < 0.1 | < 1 | < 10 | < 10
31 | C[C@H](Nc1ncnc2[nH]cc(F)c12)c1cc2cccc(Cl)c2c(C(=O)N2CCOCC2)n1 [Compound 205] | < 0.1 | < 1 | < 10 | < 10
32 | C[C@H](Nc1ncnc2[nH]cc(C#N)c12)c1cc2cccc(Cl)c2c(C(=O)N2C3CCC2COC3)n1 [Compound 206] | < 0.1 | < 10 | > 10 | < 10
33 | C[C@H](Nc1ncnc2scnc12)c1cc2cccc(Cl)c2c(C(=O)NC2CCNCC2)n1 [Compound 209] | < 0.1 | > 10 | < 10 | > 10
34 | C[C@H](Nc1ncnc2scnc12)c1cc2cccc(Cl)c2c(C(=O)NC2CCN(C)CC2)n1 [Compound 210] | < 0.1 | > 10 | > 10 | > 10
35 | CC(C)N1CCC(NC(=O)c2nc([C@H](C)Nc3ncnc4scnc34)cc3cccc(Cl)c23)CC1 [Compound 211] | < 1 | > 10 | > 10 | > 10
36 | C[C@H](Nc1ncnc2scnc12)c1cc2cccc(Cl)c2c(C(=O)NC2CCOC2)n1 (stereo partly shown) [Compound 215] | < 0.1 | < 10 | > 10 | > 10
37 | C[C@H](Nc1ncnc2scnc12)c1cc2cccc(Cl)c2c(C(=O)NCC2CCOCC2)n1 [Compound 216] | < 1 | > 10 | > 10 | > 10
38 | C[C@H](Nc1nc(N)ncc1C(F)(F)F)c1cc2cccc(Cl)c2c(C(=O)N2CCOCC2)n1 [Compound 217] | < 1 | < 10 | > 10 | > 10
39 | C[C@H](Nc1ncnc2scnc12)c1cc2cccc(Cl)c2c(C(=O)N2CCNC(=O)C2)n1 [Compound 218] | < 0.1 | < 1 | > 10 | < 10
40 | C[C@H](Nc1ncnc2cccnc12)c1cc2cccc(Cl)c2c(C(=O)N2CCS(=O)(=O)CC2)n1 [Compound 219] | < 1 | < 1 | > 10 | > 10
